Assay results as given in ChEMBL document CHEMBL1201862, “PubChem BioAssay data set” (2004).
The source made the active and inactive calls.

What was measured:
[1] = microbe, parasite or virus in culture; assay type: functional; conditions: Mycobacterium tuberculosis
Fatty acid synthase [2] = target: T1, Fatty acid synthase (Homo sapiens, UniProt P49327); assay: FAS thioesterase domain inhibitors, dose response, biochemical, endpoint fluorescence intensity, uHTS hits (AID 624327); assay type: functional;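 note: fluorescence from hydrolysis of an O-methyl fluorescein acyl ester substrate by the enzyme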
Fatty acid synthase [3] = target: T1, Fatty acid synthase; assay: FAS thioesterase domain inhibitors, dose response, biochemical, kinetic fluorescence intensity (AID 624326); assay type: functional;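 note: rate of fluorescence rise from hydrolysis of a fluorogenic O-methyl fluorescein ester substrate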
[4] = test system: Streptococcus sp. 'group A'; assay: growth inhibition of control SK(-) GAS strain, dose response, counter-screen for streptokinase expression inhibitor project, luminescence, kanamycin, BacTiterGlo, confirmation (AID 1900); assay type: functional, organism-based
[5] = Luminescence Cell-Based Dose Retest to Confirm Inhibitors of Cancer Stem Cells. [Related pubchem assays (depositor defined):AID2717, AID2721]; assay type: functional; conditions: Homo sapiens
Streptococcus = assay: Group A Streptococcus viability loss, dose response, counter-screen for streptokinase expression inhibitor project, luminescence, BacTiterGlo (AID 1915); assay type: functional, organism-based;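 note: potency for reduction of bacterial viability or growth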
Streptokinase A = target: T2, Streptokinase A (Streptococcus pyogenes serotype M1, UniProt P10520); assay: S. pyogenes streptokinase expression inhibitors, potency, dose response, plasminogen activation absorbance, OD405 (AID 1914); assay type: functional, Streptococcus pyogenes M1 GAS;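 note: secreted streptokinase activity via plasminogen activation per viability signal from cell pellet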
T2 sequence (P10520 whole entry): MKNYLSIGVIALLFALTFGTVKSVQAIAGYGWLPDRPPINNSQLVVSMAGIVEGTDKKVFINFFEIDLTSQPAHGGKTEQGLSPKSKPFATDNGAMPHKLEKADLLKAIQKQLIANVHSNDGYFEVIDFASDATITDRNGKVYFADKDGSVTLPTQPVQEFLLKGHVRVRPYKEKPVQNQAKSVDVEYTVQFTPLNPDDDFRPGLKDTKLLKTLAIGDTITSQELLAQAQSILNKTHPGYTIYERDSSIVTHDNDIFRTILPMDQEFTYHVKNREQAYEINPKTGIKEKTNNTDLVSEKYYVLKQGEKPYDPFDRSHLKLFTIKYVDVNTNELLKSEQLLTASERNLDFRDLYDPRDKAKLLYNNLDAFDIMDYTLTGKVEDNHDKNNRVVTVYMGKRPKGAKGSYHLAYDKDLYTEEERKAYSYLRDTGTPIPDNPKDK

Large T antigen = Large T antigen (Simian virus 40, UniProt P03070); assay type: functional, Betapolyomavirus macacae;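 note: Confirmatory-stage PubChem screen for compounds that inhibit SV40 T antigen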
cells [6] = assay type: functional, cell-based
cells [7] = assay type: functional, cell-based; remark: listed apart in the source
[8] = Shn3 3'UTR reporter inhibitors, dose response, cell-based, Clone20 osteoblasts, firefly luciferase, cherry-picked (AID 624132); assay type: functional;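 note: firefly luciferase luminescence from reporter carrying the Shn3 3'UTR in osteoblasts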
[9] = control 3'UTR Renilla luciferase suppression, dose response, counter-screen for Shn3 inhibitor project, cell-based, Clone20-Shn3RL, cherry-picked (AID 624133); assay type: functional
[10] = HepG2 cell cytotoxicity, dose response, cytotoxicity control for Shn3 inhibitor project, CellTiter-Glo, cherry-picked (AID 624134); assay type: functional, cell-based
[11] = target: T3, Calpain-2 catalytic subunit (Sus scrofa, UniProt P43367); assay: pig calpain II inhibitor potency, dose response, biochemical, fluorogenic peptide substrate (AID 1420); assay type: functional
T3 sequence (P43367 whole entry): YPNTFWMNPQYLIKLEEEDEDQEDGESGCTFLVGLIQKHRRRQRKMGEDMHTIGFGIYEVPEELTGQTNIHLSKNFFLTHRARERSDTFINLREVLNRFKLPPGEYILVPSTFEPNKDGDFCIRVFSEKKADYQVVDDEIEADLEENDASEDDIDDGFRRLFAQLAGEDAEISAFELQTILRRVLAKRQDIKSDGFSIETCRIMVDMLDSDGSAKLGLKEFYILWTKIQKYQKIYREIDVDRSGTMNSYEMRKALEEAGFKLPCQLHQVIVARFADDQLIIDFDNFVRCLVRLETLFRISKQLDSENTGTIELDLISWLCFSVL

[12] = Luminescence Cell-Based Dose Response HTS to Identify Inhibitors of 5'UTR Stem-Loop Driven Prion Protein mRNA Translation in H4 Neuroglioblastoma Cells. [Related pubchem assays: 1827 (Project Summary), 1813 (Primary HTS)]; assay type: functional
[13] = inhibitors of SNCA 5'UTR-driven reporter translation, confirmation, H4 neuroglioma cells, luminescence (AID 1988); assay type: functional, cell-based
HEK293 = assay: inhibitors of LMP1-driven NF-kB reporter, dose response, cell-based, HEK293, luciferase, cherry-pick (AID 588343); assay type: functional; conditions: Homo sapiens
[14] = inhibitors of firefly luciferase expression or activity, dose response, H4 neuroglioma cells, luminescence (AID 1990); assay type: functional, cell-based
[15] = inhibitors of intracellular T. cruzi replication, confirmation, NIH3T3 host cells, beta-gal luminescence (AID 2044); assay type: functional, cell-based;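 note: intracellular parasites grown in NIH/3T3 mouse fibroblasts as host cells; luminescent beta-galactosidase reporter signal from transgenic T. cruzi replicating inside host cells; inhibitors lower the luminescence signal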
[16] = cytotoxicity toward NIH3T3 fibroblasts, dose response, counter-screen, cell-based, ATP luminescence, mouse fibroblasts (AID 2010); assay type: functional;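 note: cells exposed to compound for about 90 hours before reading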
Protein skinhead-1 = target: T4, Protein skinhead-1 (Caenorhabditis elegans, UniProt P34707); assay type: functional
T4 sequence (P34707 whole entry): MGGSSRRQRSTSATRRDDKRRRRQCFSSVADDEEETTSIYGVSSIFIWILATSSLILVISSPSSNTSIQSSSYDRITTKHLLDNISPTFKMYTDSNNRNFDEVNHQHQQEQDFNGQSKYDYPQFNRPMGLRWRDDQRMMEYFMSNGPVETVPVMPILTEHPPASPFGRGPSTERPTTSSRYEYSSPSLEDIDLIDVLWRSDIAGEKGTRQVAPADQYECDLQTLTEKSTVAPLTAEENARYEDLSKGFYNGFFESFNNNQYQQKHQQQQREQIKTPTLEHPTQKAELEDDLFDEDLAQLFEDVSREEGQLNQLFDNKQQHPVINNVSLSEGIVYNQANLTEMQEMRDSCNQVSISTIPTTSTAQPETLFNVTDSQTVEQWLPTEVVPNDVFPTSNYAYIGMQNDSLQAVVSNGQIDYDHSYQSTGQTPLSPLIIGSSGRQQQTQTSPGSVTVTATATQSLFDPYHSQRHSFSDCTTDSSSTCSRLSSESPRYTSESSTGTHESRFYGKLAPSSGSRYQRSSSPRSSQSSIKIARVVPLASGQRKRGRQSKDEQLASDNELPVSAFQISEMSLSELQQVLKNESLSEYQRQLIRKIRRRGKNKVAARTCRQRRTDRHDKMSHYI

INS1 = assay: beta cell apoptosis inhibitors, cytokine rescue, dose response, luminescence, retest (AID 449756); assay type: functional, cell-based; conditions: Rattus norvegicus;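 note: cell death triggered by IL-1 beta plus TNF-alpha plus IFN-gamma mixture; protective hits raise ATP signal compared with cytokine alone wells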

Sequence of Large T antigen (P03070 whole entry): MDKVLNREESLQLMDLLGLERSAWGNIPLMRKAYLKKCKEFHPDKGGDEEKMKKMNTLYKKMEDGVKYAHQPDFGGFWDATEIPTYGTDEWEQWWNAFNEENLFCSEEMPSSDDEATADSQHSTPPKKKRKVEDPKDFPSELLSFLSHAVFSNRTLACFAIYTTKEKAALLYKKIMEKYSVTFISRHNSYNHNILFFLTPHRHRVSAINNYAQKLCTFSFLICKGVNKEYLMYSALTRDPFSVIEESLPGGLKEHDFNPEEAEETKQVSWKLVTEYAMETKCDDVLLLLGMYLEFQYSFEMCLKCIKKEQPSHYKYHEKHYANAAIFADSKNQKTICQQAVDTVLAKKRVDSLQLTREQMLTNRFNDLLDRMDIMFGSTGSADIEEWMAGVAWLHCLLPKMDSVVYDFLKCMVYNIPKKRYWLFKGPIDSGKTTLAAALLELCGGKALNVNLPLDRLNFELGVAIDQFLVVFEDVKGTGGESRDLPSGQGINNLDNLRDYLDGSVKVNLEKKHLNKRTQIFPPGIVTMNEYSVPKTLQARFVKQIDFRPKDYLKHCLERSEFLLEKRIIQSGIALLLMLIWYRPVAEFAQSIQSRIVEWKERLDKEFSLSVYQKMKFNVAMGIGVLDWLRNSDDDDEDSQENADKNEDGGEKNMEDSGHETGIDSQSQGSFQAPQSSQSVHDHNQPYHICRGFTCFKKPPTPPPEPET
T1 sequence (P49327 whole entry, the tested form may be a part): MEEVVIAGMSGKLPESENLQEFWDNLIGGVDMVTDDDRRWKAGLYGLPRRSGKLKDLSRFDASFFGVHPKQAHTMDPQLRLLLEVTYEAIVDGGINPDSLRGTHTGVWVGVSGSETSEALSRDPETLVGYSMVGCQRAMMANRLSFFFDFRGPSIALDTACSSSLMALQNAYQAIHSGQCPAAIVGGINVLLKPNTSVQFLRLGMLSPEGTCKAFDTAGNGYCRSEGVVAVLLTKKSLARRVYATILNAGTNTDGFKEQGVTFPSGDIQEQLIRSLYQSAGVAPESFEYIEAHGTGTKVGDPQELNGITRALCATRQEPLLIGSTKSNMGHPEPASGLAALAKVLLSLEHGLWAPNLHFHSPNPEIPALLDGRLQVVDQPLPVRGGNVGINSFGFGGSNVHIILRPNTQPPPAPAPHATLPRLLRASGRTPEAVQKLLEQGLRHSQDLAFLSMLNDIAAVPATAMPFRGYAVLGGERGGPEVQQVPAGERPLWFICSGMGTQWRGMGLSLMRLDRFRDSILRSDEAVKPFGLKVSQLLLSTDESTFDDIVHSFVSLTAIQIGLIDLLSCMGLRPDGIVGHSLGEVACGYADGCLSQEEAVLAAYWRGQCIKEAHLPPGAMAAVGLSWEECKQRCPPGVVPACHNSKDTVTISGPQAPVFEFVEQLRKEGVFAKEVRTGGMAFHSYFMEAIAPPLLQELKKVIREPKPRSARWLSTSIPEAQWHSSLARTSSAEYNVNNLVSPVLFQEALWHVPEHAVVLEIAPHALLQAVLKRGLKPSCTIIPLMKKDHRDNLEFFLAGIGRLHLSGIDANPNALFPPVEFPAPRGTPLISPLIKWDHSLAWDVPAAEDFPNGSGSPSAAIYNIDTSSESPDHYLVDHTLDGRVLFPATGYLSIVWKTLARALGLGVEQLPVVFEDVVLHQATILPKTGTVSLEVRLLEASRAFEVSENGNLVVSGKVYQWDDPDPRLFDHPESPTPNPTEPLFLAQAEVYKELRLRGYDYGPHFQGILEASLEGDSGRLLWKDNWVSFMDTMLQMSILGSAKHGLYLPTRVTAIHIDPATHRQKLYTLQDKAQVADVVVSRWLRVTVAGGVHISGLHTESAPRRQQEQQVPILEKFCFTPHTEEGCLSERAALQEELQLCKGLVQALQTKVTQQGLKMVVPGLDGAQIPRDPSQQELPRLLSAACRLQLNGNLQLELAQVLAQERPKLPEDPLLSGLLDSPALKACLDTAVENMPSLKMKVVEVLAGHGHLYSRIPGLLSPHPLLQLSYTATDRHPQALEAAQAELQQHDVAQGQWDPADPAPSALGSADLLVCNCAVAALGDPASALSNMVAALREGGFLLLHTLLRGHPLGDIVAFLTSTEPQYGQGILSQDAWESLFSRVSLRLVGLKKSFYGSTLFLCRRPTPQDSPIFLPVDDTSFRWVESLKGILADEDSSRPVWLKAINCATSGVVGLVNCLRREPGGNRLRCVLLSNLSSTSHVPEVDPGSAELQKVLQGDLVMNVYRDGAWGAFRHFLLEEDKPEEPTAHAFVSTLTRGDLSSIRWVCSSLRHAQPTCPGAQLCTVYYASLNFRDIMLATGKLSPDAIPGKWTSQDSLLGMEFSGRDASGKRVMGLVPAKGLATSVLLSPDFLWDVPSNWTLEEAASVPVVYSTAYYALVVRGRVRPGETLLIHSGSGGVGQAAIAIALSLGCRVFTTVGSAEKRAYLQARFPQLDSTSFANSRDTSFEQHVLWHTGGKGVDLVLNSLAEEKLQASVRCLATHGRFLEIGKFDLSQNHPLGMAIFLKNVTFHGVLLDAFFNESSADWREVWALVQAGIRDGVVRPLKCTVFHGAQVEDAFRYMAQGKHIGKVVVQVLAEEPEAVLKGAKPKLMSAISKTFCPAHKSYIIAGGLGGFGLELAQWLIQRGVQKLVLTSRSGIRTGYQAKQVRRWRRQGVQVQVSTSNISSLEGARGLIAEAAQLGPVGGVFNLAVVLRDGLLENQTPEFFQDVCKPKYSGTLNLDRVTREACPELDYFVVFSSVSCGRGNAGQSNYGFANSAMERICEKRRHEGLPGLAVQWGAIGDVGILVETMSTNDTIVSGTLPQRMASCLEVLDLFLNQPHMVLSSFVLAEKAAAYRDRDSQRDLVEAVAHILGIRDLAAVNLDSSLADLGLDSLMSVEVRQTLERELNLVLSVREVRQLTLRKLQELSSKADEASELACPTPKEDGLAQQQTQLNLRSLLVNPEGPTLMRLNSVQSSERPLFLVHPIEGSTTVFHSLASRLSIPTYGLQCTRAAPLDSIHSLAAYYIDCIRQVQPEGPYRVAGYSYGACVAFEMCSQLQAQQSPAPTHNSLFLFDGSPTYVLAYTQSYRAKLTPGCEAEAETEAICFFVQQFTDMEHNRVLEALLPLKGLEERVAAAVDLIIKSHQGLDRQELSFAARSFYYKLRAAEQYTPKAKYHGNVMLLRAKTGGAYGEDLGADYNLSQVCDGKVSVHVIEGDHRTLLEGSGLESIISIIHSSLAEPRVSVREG

N#Cc1c(-c2ccccc2)c(-c2ccccc2)nn(CC(=O)NNC(=O)Nc2ccc(Cl)c(Cl)c2)c1=O
CC50 [1]: 32.9 µM (active)
IC50 (Fatty acid synthase [2]): 7.91 µM (active)
IC50 (Fatty acid synthase [3]): 8.07 µM (active)
EC50 [4]: 5.78 µM (active)
AC50 [5]: 1.75 µM (active)
EC50 (Streptococcus): 103 µM (active)
EC50 (Streptokinase A): 4 µM (active)

Oc1ccc(N2CCN(C(c3ccccn3)c3nnnn3C3CCCC3)CC2)cc1 (centres undefined)
IC50 (Large T antigen): 6.25 µM (active)

N#Cc1ccccc1S(=O)(=O)N1CCN(c2cnccn2)CC1
EC50 (cells [6]): > 350 µM (not active)
EC50 (cells [7]): > 350 µM (not active)

Cc1ccc(-n2ncc3c(N4CCN(c5ccc(F)cc5)CC4)ncnc32)c(C)c1
AC50 [8]: 3.24 µM (active)
AC50 [9]: 5.66 µM (active)
AC50 [10]: 2.94 µM (active)

C[C@@]12C(=O)Nc3ccccc3C(=O)N1[C@H]1c3cc(Br)ccc3OC[C@@H]1[C@@H]2c1ccccc1
IC50 (Fatty acid synthase [2]): 16.2 µM (active)
IC50 (Fatty acid synthase [3]): 11.8 µM (active)

Cc1csc(NC(=O)C2CCN(S(=O)(=O)c3ccc4c(c3)oc(=O)n4C)CC2)n1
IC50 (Fatty acid synthase [2]): 8.65 µM (active)
IC50 (Fatty acid synthase [3]): 6.81 µM (active)

O=Cc1cccn1-c1ccc(O)cc1
IC50 (Large T antigen): > 100 µM (active)

O=S(=O)(c1ccc(C(F)(F)F)cc1)N1CCC(c2nc(O)c3nnn(Cc4ccc(F)cc4)c3n2)CC1
EC50 (cells [6]): > 350 µM (not active)
EC50 (cells [7]): > 350 µM (not active)

O=C(O)c1cc(NN=Nc2ccc(Br)cc2)cc([N+](=O)[O-])c1
IC50 (Fatty acid synthase [2]): 5.49 µM (active)
IC50 [11]: 12.6 µM (not active)
IC50 (Fatty acid synthase [3]): 6.81 µM (active)

O=C(Nc1cnc2ccccn2c1=O)c1ccc(Cl)cc1Cl
EC50 [12]: 5 µM (active)
EC50 [13]: 5.78 µM (active)
AC50 (HEK293): 2.55 µM (active)
EC50 [14]: 10.1 µM (inconclusive)

O=C(NCCOc1ccccc1)c1cc(C(=O)NCCOc2ccccc2)cc([N+](=O)[O-])c1
IC50 (Fatty acid synthase [2]): 5.6 µM (active)
IC50 (Fatty acid synthase [3]): 2.75 µM (active)
EC50 [15]: 1.28 µM (active)
EC50 [16]: > 60 µM (not active)

CCCn1cnc2cc(NCc3cccc(OC)c3O)ccc21
IC50 (Protein skinhead-1): > 100 µM (inactive)
IC50 (Large T antigen): 22.1 µM (active)

COC(=O)C1=C(c2ccc(-c3ccccc3)c(F)c2)C[C@@H]2CC[C@H]1N2C(=O)NCC1CC1
AC50 [8]: 4.32 µM (active)
AC50 [9]: 30.6 µM (active)
AC50 [10]: > 70 µM (inactive)

Cc1ccccc1/C=C/C(=O)c1ccc([N+](=O)[O-])o1
AC50 (INS1): 3.15 µM (active)
EC50 [4]: 2.37 µM (active)
IC50 (Large T antigen): 83.2 µM (active)
EC50 (Streptococcus): 10.6 µM (active)
EC50 (Streptokinase A): 50.9 µM (inconclusive)

CN1CCN(S(=O)(=O)c2ccc(Sc3nnnn3-c3ccccc3)c([N+](=O)[O-])c2)CC1
AC50 [8]: 3.9 µM (active)
AC50 [9]: 7.28 µM (active)
AC50 [10]: > 70 µM (inactive)
